Where “and” joins values, the source holds several entries; their conditions need not be identical. Equal values may be shown once. Read-outs that look alike come from different tables or passages of the source.
Legend:
Assay type in all cases: cell-based
[1] = molecular target: T1, protein kinases (human kinome) (Homo sapiens, UniProt Q96L34); settings: for logFC MARK4: Accession Q96L34-1
T1 sequence (Q96L34 1-752): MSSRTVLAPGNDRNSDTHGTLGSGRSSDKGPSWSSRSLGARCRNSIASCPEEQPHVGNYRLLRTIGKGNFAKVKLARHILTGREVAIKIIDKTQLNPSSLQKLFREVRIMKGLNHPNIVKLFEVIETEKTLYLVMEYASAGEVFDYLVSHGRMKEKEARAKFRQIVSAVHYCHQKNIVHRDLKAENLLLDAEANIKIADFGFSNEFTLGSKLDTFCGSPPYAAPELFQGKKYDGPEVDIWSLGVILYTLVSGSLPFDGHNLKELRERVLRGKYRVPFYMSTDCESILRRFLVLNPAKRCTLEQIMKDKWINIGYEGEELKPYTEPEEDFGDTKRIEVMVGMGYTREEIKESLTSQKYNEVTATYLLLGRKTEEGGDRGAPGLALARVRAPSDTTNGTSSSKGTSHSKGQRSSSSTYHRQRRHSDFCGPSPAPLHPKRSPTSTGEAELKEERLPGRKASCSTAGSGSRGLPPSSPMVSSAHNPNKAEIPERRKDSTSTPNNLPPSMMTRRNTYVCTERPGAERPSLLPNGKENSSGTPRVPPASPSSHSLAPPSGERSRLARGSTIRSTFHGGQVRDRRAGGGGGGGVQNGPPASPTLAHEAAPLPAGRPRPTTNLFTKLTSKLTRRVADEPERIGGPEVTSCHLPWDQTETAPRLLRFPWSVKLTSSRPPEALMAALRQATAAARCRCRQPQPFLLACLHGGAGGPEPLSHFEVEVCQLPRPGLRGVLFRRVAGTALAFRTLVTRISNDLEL

[2] = molecular target: protein kinases (human kinome) (Homo sapiens, UniProt Q00535); settings: for logFC of CDK5: Accession Q00535
[3] = molecular target: protein kinases (human kinome) (Homo sapiens, UniProt P24941)
[4] = molecular target: T2, protein kinases (human kinome) (Homo sapiens, UniProt P33981); settings: for logFC TTK: Accession P33981
T2 sequence (P33981 1-857): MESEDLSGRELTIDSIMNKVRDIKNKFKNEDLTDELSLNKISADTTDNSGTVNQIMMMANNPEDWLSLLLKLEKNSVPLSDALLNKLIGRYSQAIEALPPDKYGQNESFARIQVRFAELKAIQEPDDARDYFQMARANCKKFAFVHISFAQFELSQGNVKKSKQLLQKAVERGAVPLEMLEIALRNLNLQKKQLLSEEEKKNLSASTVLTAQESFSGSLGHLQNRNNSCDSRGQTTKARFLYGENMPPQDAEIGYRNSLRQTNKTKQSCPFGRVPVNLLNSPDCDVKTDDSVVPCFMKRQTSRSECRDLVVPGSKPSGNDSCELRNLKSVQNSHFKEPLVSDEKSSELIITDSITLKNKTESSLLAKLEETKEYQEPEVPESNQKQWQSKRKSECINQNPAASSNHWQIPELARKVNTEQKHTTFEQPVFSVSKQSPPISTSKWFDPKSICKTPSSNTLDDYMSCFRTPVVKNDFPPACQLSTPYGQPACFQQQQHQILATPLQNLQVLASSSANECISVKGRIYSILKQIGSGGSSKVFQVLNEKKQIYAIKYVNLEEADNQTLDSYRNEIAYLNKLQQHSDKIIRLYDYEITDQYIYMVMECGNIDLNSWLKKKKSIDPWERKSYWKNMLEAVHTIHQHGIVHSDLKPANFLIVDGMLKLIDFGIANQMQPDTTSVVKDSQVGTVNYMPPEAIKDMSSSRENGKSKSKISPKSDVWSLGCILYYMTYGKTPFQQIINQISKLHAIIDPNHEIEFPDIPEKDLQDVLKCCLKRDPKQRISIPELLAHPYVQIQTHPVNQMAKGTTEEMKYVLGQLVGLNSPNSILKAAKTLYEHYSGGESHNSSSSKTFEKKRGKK

[5] = molecular target: protein kinases (human kinome) (Homo sapiens, UniProt Q14289); settings: for logFC: PTK2B (Q14289-1) protein abundance, degrader vs DMSO, down; for logFC PTK2B: accession Q14289-1, direction of change down
[6] = Experiment wp105, direction of change down
[7] = experiment wp016, 1 uM, direction of change down
[8] = experiment wp016, direction of change down
[9] = experiment wp103, direction of change down
[10] = experiment wp107, direction of change down
[11] = experiment wp133, 2 hr, direction of change down
[12] = experiment wp133, 4 hr, direction of change down
[13] = experiment wp160, 2 hr, direction of change down
[14] = experiment wp160, 4 hr, direction of change down
[15] = experiment wp172, direction of change down
[16] = experiment wp131, direction of change down
[17] = experiment wp137, direction of change down

protein kinases (human kinome) (Homo sapiens, UniProt Q00535), sequence (Q00535 whole entry): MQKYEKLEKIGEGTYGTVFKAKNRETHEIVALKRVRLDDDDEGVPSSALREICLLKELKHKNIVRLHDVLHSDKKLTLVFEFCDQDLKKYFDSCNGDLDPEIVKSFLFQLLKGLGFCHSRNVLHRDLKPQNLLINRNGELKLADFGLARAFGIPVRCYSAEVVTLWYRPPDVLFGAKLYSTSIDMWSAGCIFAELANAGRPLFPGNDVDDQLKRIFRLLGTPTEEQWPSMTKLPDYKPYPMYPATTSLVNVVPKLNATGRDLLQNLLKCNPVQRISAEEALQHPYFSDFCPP
protein kinases (human kinome) (Homo sapiens, UniProt Q14289), sequence (Q14289 whole entry): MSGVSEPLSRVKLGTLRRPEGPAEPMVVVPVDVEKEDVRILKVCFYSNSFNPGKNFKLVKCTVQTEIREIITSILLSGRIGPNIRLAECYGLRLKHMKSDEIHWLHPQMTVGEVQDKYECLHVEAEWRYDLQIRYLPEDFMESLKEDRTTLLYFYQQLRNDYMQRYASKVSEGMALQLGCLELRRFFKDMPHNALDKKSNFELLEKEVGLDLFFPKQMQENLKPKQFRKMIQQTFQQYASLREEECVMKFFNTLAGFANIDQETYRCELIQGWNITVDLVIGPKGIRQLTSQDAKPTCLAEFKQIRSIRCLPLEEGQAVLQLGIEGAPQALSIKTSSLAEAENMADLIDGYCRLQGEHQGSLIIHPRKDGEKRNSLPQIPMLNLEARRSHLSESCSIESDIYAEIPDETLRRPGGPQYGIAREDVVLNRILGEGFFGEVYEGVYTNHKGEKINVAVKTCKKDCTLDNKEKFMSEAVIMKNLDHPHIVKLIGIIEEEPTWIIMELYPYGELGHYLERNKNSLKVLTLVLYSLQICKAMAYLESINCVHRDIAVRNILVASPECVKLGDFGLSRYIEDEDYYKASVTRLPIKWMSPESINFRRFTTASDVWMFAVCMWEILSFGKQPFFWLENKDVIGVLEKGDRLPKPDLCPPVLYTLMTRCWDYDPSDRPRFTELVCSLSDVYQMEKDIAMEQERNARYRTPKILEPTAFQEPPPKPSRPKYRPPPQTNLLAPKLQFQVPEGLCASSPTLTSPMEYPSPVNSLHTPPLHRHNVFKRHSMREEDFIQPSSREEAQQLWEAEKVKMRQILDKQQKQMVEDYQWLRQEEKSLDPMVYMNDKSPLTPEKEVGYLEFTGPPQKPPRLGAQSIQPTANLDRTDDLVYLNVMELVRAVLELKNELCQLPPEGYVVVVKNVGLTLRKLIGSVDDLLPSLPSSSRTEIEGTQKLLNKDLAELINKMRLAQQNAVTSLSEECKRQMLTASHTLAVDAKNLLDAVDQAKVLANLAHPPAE

## CC(C)S(=O)(=O)c1ccccc1Nc1nc(Nc2ccc(N3CCN(CCOCCNC(=O)CNc4cccc5c4C(=O)N(C4CCC(=O)NC4=O)C5=O)CC3)cc2)ncc1Cl (stereo not drawn) [SK.3.91]
[1]; experiment wp103
  logFC MARK4: −1.326
  logFC MARK4 (Q96L34-1): −1.326
[1]; experiment wp107
  logFC MARK4: −1.292
  logFC MARK4 (Q96L34-1): −1.292
[1]; experiment wp114
  logFC MARK4: −1.3
  logFC MARK4 (Q96L34-1): −1.3
[1]; experiment wp133, 2 hr
  logFC MARK4: −0.6282
  logFC MARK4 (Q96L34-1): −0.6282
[1]; experiment wp133, 4 hr
  logFC MARK4: −1.537
  logFC MARK4 (Q96L34-1): −1.537
[1]; experiment wp160, 4 hr
  logFC MARK4: −1.529
  logFC MARK4 (Q96L34-1): −1.529
[2]; experiment wp016
  logFC of CDK5: −1.126
[2]; experiment wp016, 1 uM
  logFC of CDK5: −1.429
[2]; experiment wp103
  logFC of CDK5: −1.043
[2]; experiment wp105
  logFC of CDK5: −0.931
[2]; [6]
  logFC CDK5 (Q00535): −0.931
[2]; Experiment wp107
  logFC CDK5 (Q00535): −1.014
[2]; Experiment wp114
  logFC CDK5 (Q00535): −0.468
[2]; Experiment wp114, direction of change down
  logFC CDK5 (Q00535): −0.468
[2]; Experiment wp160, 2 hr
  logFC CDK5 (Q00535): −0.6265
[2]; Experiment wp172
  logFC CDK5 (Q00535): −1.304
[2]; [7]
  logFC CDK5 (Q00535): −1.429
[2]; [8]
  logFC CDK5 (Q00535): −1.126
[2]; [9]
  logFC CDK5 (Q00535): −1.043
[2]; [10]
  logFC CDK5 (Q00535): −1.014
[2]; experiment wp133, 2 hr
  logFC CDK5 (Q00535): −0.6608
[2]; [11]
  logFC CDK5 (Q00535): −0.6608
[2]; experiment wp133, 4 hr
  logFC CDK5 (Q00535): −1.242
[2]; [12]
  logFC CDK5 (Q00535): −1.242
[2]; experiment wp160, 1 hr
  logFC CDK5 (Q00535): −0.3257
[2]; experiment wp160, 1 hr, direction of change down
  logFC CDK5 (Q00535): −0.3257
[2]; [13]
  logFC CDK5 (Q00535): −0.6265
[2]; experiment wp160, 4 hr
  logFC CDK5 (Q00535): −1.197
[2]; [14]
  logFC CDK5 (Q00535): −1.197
[2]; [15]
  logFC CDK5 (Q00535): −1.304
[3]; Experiment wp103
  logFC CDK2 (P24941-1): −0.4588
[3]; [6]
  logFC CDK2 (P24941-1): −0.4593
[3]; Experiment wp107
  logFC CDK2 (P24941-1): −0.7583
[3]; Experiment wp160, 2 hr
  logFC CDK2 (P24941-1): −0.383
[3]; Experiment wp172
  logFC CDK2 (P24941-1): −0.8996
[3]; experiment wp016
  logFC CDK2 (P24941-1): −0.5115
[3]; experiment wp016, 1 uM
  logFC CDK2 (P24941-1): −1.047
[3]; [7]
  logFC CDK2 (P24941-1): −1.047
[3]; [8]
  logFC CDK2 (P24941-1): −0.5115
[3]; [9]
  logFC CDK2 (P24941-1): −0.4588
[3]; experiment wp105
  logFC CDK2 (P24941-1): −0.4593
[3]; [10]
  logFC CDK2 (P24941-1): −0.7583
[3]; experiment wp133, 2 hr
  logFC CDK2 (P24941-1): −0.4306
[3]; [11]
  logFC CDK2 (P24941-1): −0.4306
[3]; experiment wp133, 4 hr
  logFC CDK2 (P24941-1): −0.6908
[3]; [12]
  logFC CDK2 (P24941-1): −0.6908
[3]; [13]
  logFC CDK2 (P24941-1): −0.383
[3]; experiment wp160, 4 hr
  logFC CDK2 (P24941-1): −0.647
[3]; [14]
  logFC CDK2 (P24941-1): −0.647
[3]; [15]
  logFC CDK2 (P24941-1): −0.8996
[4]; experiment wp103
  logFC TTK: −0.3267
  logFC TTK (P33981): −0.3267
[4]; experiment wp107
  logFC TTK: −0.4781
  logFC TTK (P33981): −0.4781
[4]; experiment wp133, 2 hr
  logFC TTK: −0.3833
  logFC TTK (P33981): −0.3833
[4]; experiment wp133, 4 hr
  logFC TTK: −0.5052
  logFC TTK (P33981): −0.5052
[5]; 1 uM
  logFC: −3.603
[5]; 1 hr
  logFC: −0.8056 and −1.043
[5]; 2 hr
  logFC: −2.027 and −2.105
[5]; experiment wp016, 1 uM
  logFC PTK2B: −3.603
[5]; experiment wp016
  logFC PTK2B: −3.824
[5]; experiment wp114
  logFC PTK2B: −1.885
[5]; experiment wp133, 1 hr
  logFC PTK2B: −0.8056
[5]; experiment wp133, 2 hr
  logFC PTK2B: −2.027
[5]; experiment wp133, 4 hr
  logFC PTK2B: −3.96
[5]; experiment wp160, 1 hr
  logFC PTK2B: −1.043
[5]; experiment wp160, 2 hr
  logFC PTK2B: −2.105
[5]; experiment wp160, 4 hr
  logFC PTK2B: −2.773

## CC(C)S(=O)(=O)c1ccccc1Nc1nc(Nc2ccc(N3CCN(CCOCCOCCNC(=O)CNc4cccc5c4C(=O)N(C4CCC(=O)NC4=O)C5=O)CC3)cc2)ncc1Cl (stereo not drawn) [TL12.186]
[1]; experiment wp137
  logFC MARK4: −1.298
  logFC MARK4 (Q96L34-1): −1.298
[1]; experiment wp131
  logFC MARK4 (Q96L34-1): −1.829
[2]; experiment wp016
  logFC of CDK5: −0.9261
[2]; [8]
  logFC CDK5 (Q00535): −0.9261
[2]; experiment wp131
  logFC CDK5 (Q00535): −1.3
[2]; [16]
  logFC CDK5 (Q00535): −1.3
[2]; experiment wp137
  logFC CDK5 (Q00535): −1.234
[2]; [17]
  logFC CDK5 (Q00535): −1.234
[3]; experiment wp016
  logFC CDK2 (P24941-1): −0.5971
[3]; [8]
  logFC CDK2 (P24941-1): −0.5971
[3]; experiment wp131
  logFC CDK2 (P24941-1): −0.98
[3]; [16]
  logFC CDK2 (P24941-1): −0.98
[3]; experiment wp137
  logFC CDK2 (P24941-1): −0.9162
[3]; [17]
  logFC CDK2 (P24941-1): −0.9162
[5]
  logFC: −3.722
[5]; experiment wp016
  logFC PTK2B: −3.722

## CC(C)S(=O)(=O)c1ccccc1Nc1nc(Nc2ccc(N3CCN(CCOCCOCCC(=O)NCCNc4cccc5c4CN(C4CCC(=O)NC4=O)C5=O)CC3)cc2)ncc1Cl (stereo not drawn) [TL13.97]
[1]; experiment wp137
  logFC MARK4: −1.74
  logFC MARK4 (Q96L34-1): −1.74
[2]; experiment wp137
  logFC CDK5 (Q00535): −1.114
[2]; [17]
  logFC CDK5 (Q00535): −1.114
[3]; experiment wp137
  logFC CDK2 (P24941-1): −0.7834
[3]; [17]
  logFC CDK2 (P24941-1): −0.7834
